Results published in ChEMBL document CHEMBL1833895, “Synthesis and biological activity of desmethoxy analogues of coruscanone A” (Bioorg Med Chem Lett, 2011).

Tests used:
[1] = system: Lichtheimia corymbifera; test: Antifungal activity against Absidia corymbifera 272 after 24 hrs by microdilution method; type: functional, organism-based; settings: Lichtheimia corymbifera, 272, 24 h
[2] = system: Candida albicans; test: Antifungal activity against Candida albicans ATCC 90028 after 24 hrs by microdilution method; type: functional; settings: ATCC 90028, 24 h
[3] = system: Trichosporon asahii; test: Antifungal activity against Trichosporon asahii 1188 after 24 hrs by microdilution method; type: functional; settings: Trichosporon asahii, 1188, 24 h
[4] = system: Pichia kudriavzevii; test: Antifungal activity against Candida krusei E28 after 48 hrs by microdilution method; type: functional; settings: E28, 48 h
[5] = system: Trichophyton mentagrophytes; test: Antifungal activity against Trichophyton mentagrophytes 445 after 72 hrs by microdilution method; type: functional, organism-based; settings: Trichophyton mentagrophytes, 445, 72 h
[6] = system: Candida tropicalis; test: Antifungal activity against Candida tropicalis 156 after 48 hrs by microdilution method; type: functional; settings: Candida tropicalis, 156, 48 h
[7] = system: L1210; test: Cytostatic activity against mouse L1210 cells at 10 umol/L after 72 hrs by XTT assay; type: ADME, cell-based; settings: l1210, 72 h, 10 µM
[8] = system: Candida albicans; test: Antifungal activity against Candida albicans ATCC 44859 after 48 hrs by microdilution method; type: functional; settings: ATCC 44859, 48 h
[9] = system: Candida parapsilosis; test: Antifungal activity against Candida parapsilosis ATCC 22019 after 24 hrs by microdilution method; type: functional; settings: Lodderomyces parapsilosis, ATCC 22019, 24 h
[10] = system: Aspergillus fumigatus; test: Antifungal activity against Aspergillus fumigatus 231 after 48 hrs by microdilution method; type: functional, organism-based; settings: Aspergillus fumigatus, 231, 48 h
[11] = system: Candida albicans; test: Antifungal activity against Candida albicans ATCC 44859 after 24 hrs by microdilution method; type: functional; settings: ATCC 44859, 24 h
[12] = system: Pichia kudriavzevii; test: Antifungal activity against Candida krusei ATCC 6258 after 48 hrs by microdilution method; type: functional; settings: ATCC 6258, 48 h
[13] = system: Pichia kudriavzevii; test: Antifungal activity against Candida krusei E28 after 24 hrs by microdilution method; type: functional; settings: E28, 24 h
[14] = system: Clavispora lusitaniae; test: Antifungal activity against Candida lusitaniae 2446/I after 48 hrs by microdilution method; type: functional
[15] = system: Nakaseomyces glabratus; test: Antifungal activity against Candida glabrata 20/I after 24 hrs by microdilution method; type: functional
[16] = system: Candida parapsilosis; test: Antifungal activity against Candida parapsilosis ATCC 22019 after 48 hrs by microdilution method; type: functional; settings: Lodderomyces parapsilosis, ATCC 22019, 48 h
[17] = system: Pichia kudriavzevii; test: Antifungal activity against Candida krusei ATCC 6258 after 24 hrs by microdilution method; type: functional; settings: ATCC 6258, 24 h
[18] = system: Trichophyton mentagrophytes; test: Antifungal activity against Trichophyton mentagrophytes 445 after 120 hrs by microdilution method; type: functional, organism-based; settings: Trichophyton mentagrophytes, 445, 120 h
[19] = system: Clavispora lusitaniae; test: Antifungal activity against Candida lusitaniae 2446/I after 24 hrs by microdilution method; type: functional
[20] = system: Candida albicans; test: Antifungal activity against Candida albicans ATCC 90028 after 48 hrs by microdilution method; type: functional; settings: ATCC 90028, 48 h
[21] = system: CCRF-CEM; test: Cytostatic activity against human CCRF-CEM cells after 72 hrs by XTT assay; type: ADME, cell-based
[22] = system: Lichtheimia corymbifera; test: Antifungal activity against Absidia corymbifera 272 after 48 hrs by microdilution method; type: functional, organism-based; settings: Lichtheimia corymbifera, 272, 48 h
[23] = system: HL-60; test: Cytostatic activity against human HL60 cells at 10 umol/L after 72 hrs by XTT assay; type: ADME, cell-based; settings: hl-60, 72 h, 10 µM
[24] = Cytostatic activity against human COLO201 cells at 10 umol/L after 72 hrs by XTT assay; type: ADME, cell-based; settings: colo 201, 72 h, 10 µM
[25] = system: Nakaseomyces glabratus; test: Antifungal activity against Candida glabrata 20/I after 48 hrs by microdilution method; type: functional
[26] = system: Trichosporon asahii; test: Antifungal activity against Trichosporon asahii 1188 after 48 hrs by microdilution method; type: functional; settings: Trichosporon asahii, 1188, 48 h
[27] = Cytostatic activity against human HeLaS3 cells at 10 umol/L after 48 hrs by XTT assay; type: ADME, cell-based; settings: hela s3, 48 h, 10 µM
[28] = system: HT-29; test: Cytostatic activity against human HT-29 cells at 10 umol/L after 72 hrs by XTT assay; type: ADME, cell-based; settings: ht-29, 72 h, 10 µM
[29] = system: Candida tropicalis; test: Antifungal activity against Candida tropicalis 156 after 24 hrs by microdilution method; type: functional; settings: Candida tropicalis, 156, 24 h
[30] = system: Aspergillus fumigatus; test: Antifungal activity against Aspergillus fumigatus 231 after 24 hrs by microdilution method; type: functional, organism-based; settings: Aspergillus fumigatus, 231, 24 h

SMILES | IC80 [1] [µM] | IC80 [2] [µM] | IC80 [3] [µM] | IC80 [4] [µM] | IC80 [5] [µM] | IC80 [6] [µM] | IC80 [8] [µM] | IC80 [9] [µM] | IC80 [10] [µM] | IC80 [11] [µM] | IC80 [12] [µM] | IC80 [13] [µM] | IC80 [14] [µM] | IC80 [15] [µM] | IC80 [16] [µM] | IC80 [17] [µM] | IC50 [18] [µM] | IC80 [19] [µM] | IC80 [20] [µM] | IC80 [22] [µM] | further results
Cc1ccc(C=C2C(=O)C=CC2=O)cc1 | > 250 | 3.9 | 15.6 | 15.6 | 125 | 15.6 | 7.81 | 15.6 | 125 | 3.9 | 15.6 | 15.6 | 15.6 | 15.6 | 15.6 | 7.81 | > 250 | 15.6 | 15.6 | > 250 | Activity [7]: Non-toxic; IC50 [21]: 2.7 µM; Activity [23]: Non-toxic; Activity [24]: Non-toxic; IC80 [25]: 15.6 µM; IC80 [26]: 62.5 µM; Activity [27]: Non-toxic; Activity [28]: Non-toxic; IC80 [29]: 7.81 µM; IC80 [30]: 31.2 µM
O=C1C=CC(=O)C1=Cc1ccccc1 | 250 | 3.9 | 1.95 | 7.81 | 1.95 | 3.9 | 1.95 | 3.9 | 31.2 | 1.95 | 3.9 | 3.9 | 15.6 | 7.81 | 3.9 | 3.9 | 3.9 | 7.81 | 7.81 | 250 | Activity [7]: Non-toxic; IC50 [21]: 2.6 µM; Activity [23]: Non-toxic; Activity [24]: Non-toxic; IC80 [25]: 7.81 µM; IC80 [26]: 3.9 µM; Activity [27]: Non-toxic; Activity [28]: Non-toxic; IC80 [29]: 3.9 µM; IC80 [30]: 15.6 µM
O=C1C=CC(=O)C1=Cc1cccc(Br)c1 | > 125 | 15.6 | 32.5 | 31.2 | 15.6 | 62.5 | 31.2 | 31.2 | 125 | 15.6 | 31.2 | 31.2 | 31.2 | 31.2 | 62.5 | 15.6 | 15.6 | 31.2 | 31.2 | > 125 | Activity [7]: Non-toxic; IC50 [21]: 7.5 µM; Activity [23]: Non-toxic; Activity [24]: Non-toxic; IC80 [25]: 62.5 µM; IC80 [26]: 125 µM; Activity [27]: Non-toxic; Activity [28]: Non-toxic; IC80 [29]: 31.2 µM; IC80 [30]: 125 µM
O=C1C=CC(=O)C1=C/C=C/c1ccccc1 | > 125 | 15.6 | 7.81 | 15.6 | 7.81 | 15.6 | 1.95 | 3.9 | 31.2 | 1.95 | 7.81 | 15.6 | 15.6 | 15.6 | 7.81 | 3.9 | 62.5 | 7.81 | 15.6 | > 125 | Activity [7]: Non-toxic; IC50 [21]: 4.4 µM; Activity [23]: Non-toxic; Activity [24]: Non-toxic; IC80 [25]: 31.2 µM; IC80 [26]: 15.6 µM; Activity [27]: Non-toxic; Activity [28]: Non-toxic; IC80 [29]: 7.81 µM; IC80 [30]: 31.2 µM
O=C1C=CC(=O)C1=Cc1ccc(Cl)cc1 | > 125 | 31.2 | 31.2 | 62.5 | 125 | 31.2 | 31.2 | 31.2 | 62.5 | 7.81 | 31.2 | 31.2 | 31.2 | 62.5 | 31.2 | 31.2 | > 125 | 31.2 | 31.2 | > 125 | Activity [7]: Non-toxic; IC50 [21]: 6.1 µM; Activity [23]: Non-toxic; Activity [24]: Non-toxic; IC80 [25]: 62.5 µM; IC80 [26]: 62.5 µM; Activity [27]: Non-toxic; Activity [28]: Non-toxic; IC80 [29]: 31.2 µM; IC80 [30]: 62.5 µM
OC(Cn1cncn1)(Cn1cncn1)c1ccc(F)cc1F [FLUCONAZOLE] | > 50 | 0.8 | 4 | > 50 | 17 | 5 | 2 | 6.5 | > 50 | 1 | > 50 | > 50 | 3.3 | 22 | 13 | > 50 | 26 | 3.3 | 3.3 | > 50 | IC80 [25]: > 50 µM; IC80 [26]: 9 µM; IC80 [29]: 3 µM; IC80 [30]: > 50 µM
O=C1C=CC(=O)C1=Cc1cccs1 | 500 | 15.6 | 15.6 | 7.81 | 15.6 | 15.6 | 7.81 | 15.6 | 15.6 | 7.81 | 15.6 | 7.81 | 15.6 | 7.81 | 15.6 | 7.81 | 15.6 | 15.6 | 15.6 | > 500 | Activity [7]: Non-toxic; IC50 [21]: 4.2 µM; Activity [23]: Non-toxic; Activity [24]: Non-toxic; IC80 [25]: 15.6 µM; IC80 [26]: 31.2 µM; Activity [27]: Non-toxic; Activity [28]: Non-toxic; IC80 [29]: 15.6 µM; IC80 [30]: 15.6 µM
COc1ccc(C=C2C(=O)C=CC2=O)cc1 | > 250 | 7.81 | 7.81 | 7.81 | 3.9 | 7.81 | 7.81 | 7.81 | 31.2 | 3.9 | 3.9 | 3.9 | 31.2 | 7.81 | 15.6 | 3.9 | 7.81 | 7.81 | 7.81 | > 250 | Activity [7]: Non-toxic; IC50 [21]: 3.8 µM; Activity [23]: Non-toxic; Activity [24]: Non-toxic; IC80 [25]: 7.81 µM; IC80 [26]: 31.2 µM; Activity [27]: Non-toxic; Activity [28]: Non-toxic; IC80 [29]: 7.81 µM; IC80 [30]: 15.6 µM
O=C1C=CC(=O)C1=Cc1ccc(F)cc1 | > 125 | 15.6 | 31.2 | 31.2 | 15.6 | 31.2 | 15.6 | 15.6 | 62.5 | 7.81 | 31.2 | 15.6 | 31.2 | 31.2 | 31.2 | 15.6 | 15.6 | 15.6 | 31.2 | > 125 | Activity [7]: Non-toxic; IC50 [21]: 1.6 µM; Activity [23]: Non-toxic; Activity [24]: Non-toxic; IC80 [25]: 31.2 µM; IC80 [26]: 62.5 µM; Activity [27]: Non-toxic; Activity [28]: Non-toxic; IC80 [29]: 15.6 µM; IC80 [30]: 31.2 µM
